Results: US11524966B1 (Valo Early Discovery, Inc., priority 2017, dated 2022)

Molecular target: T1, USP28 (USP28-5(1-1077)-TEV-6*His; LifeSensors) (Homo sapiens, UniProt Q96RU2)
T1 construct: construct USP28 (USP28-5(1-1077)-TEV-6*His; LifeSensors); TEV cleavage site (C); 6xHis (C); purchased LifeSensors
T1 sequence (Q96RU2 1-1077): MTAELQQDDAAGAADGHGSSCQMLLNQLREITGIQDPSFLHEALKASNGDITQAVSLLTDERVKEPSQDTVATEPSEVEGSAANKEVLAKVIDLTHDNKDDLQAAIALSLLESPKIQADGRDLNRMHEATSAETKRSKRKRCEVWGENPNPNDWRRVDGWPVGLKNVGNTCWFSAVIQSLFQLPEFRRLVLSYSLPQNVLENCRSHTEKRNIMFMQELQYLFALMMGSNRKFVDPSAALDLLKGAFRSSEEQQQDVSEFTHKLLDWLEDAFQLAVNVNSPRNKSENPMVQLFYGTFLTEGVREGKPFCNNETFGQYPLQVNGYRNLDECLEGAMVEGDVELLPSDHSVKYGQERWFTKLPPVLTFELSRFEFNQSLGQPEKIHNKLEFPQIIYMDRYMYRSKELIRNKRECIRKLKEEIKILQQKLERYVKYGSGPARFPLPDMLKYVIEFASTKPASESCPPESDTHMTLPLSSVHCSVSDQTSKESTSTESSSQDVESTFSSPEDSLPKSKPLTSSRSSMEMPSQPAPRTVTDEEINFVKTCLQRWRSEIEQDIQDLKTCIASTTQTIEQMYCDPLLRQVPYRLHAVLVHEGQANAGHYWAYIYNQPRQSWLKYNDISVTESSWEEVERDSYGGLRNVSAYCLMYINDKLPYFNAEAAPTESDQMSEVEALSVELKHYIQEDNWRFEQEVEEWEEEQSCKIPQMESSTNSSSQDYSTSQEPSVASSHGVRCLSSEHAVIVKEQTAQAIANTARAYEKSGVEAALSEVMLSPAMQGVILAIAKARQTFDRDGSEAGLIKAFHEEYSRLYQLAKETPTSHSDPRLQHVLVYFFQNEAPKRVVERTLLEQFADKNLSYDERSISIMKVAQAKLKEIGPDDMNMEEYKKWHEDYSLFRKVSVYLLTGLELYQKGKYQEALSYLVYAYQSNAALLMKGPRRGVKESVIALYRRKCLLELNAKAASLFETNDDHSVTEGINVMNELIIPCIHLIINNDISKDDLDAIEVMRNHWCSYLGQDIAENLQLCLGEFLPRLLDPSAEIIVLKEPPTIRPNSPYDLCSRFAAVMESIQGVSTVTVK
Assay: Ubiquitin-Rhodamine 110 Assay for USP28 Activity, Example A-1(b)
Format: biochemical
Details: Ub-Rh110 assay, Example A-1(b)
Protocol: Example A-1(b): Biochemical Assay: Ubiquitin-Rhodamine 110 Assay for USP28 Activity
Each assay was performed in a final volume of 20 μL in assay buffer containing 20 mM Tris-HCl (pH 8.0, (1M Tris-HCl, pH 8.0 solution; Corning 46-031-CM)), 2 mM CaCl2) (1M Calcium Chloride solution; Sigma #21114) 2 mM BME (2-Mercaptoethanol; Sigma 63689-25ML-F), 0.01% Prionex ([…] filtered, Sigma #G-0411), and 0.01% Triton X-100. Stock compound solutions were stored at −20° C. as 10 mM in DMSO. Up to 1 month prior to the assay, 2 mM test compounds were pre-dispensed into assay plates (Black, low volume; Corning #3820) and frozen at −20° C. Prestamped assay plates were allowed to come to room temperature on the day of the assay. For the screen, 100 nL of 2 mM was pre-dispensed for a final screening concentration of 10 μM (DMSO(fc)=0.5%). […] Plates were incubated stacked for 90 minutes at room temperature before fluorescence was read on the Envision (Excitation at 485 nm and Emission at 535 nm; Perkin Elmer) or on the PheraSTAR (Excitation at 485 nm and Emission at 535 nm; BMG Labtech).
For follow-up studies, each assay was performed in a final volume of 15 μL in assay buffer containing 20 mM Tris-HCl (pH 8.0, (1M Tris-HCl, pH 8.0 solution; Corning 46-031-CM)), 3 mM BME (2-Mercaptoethanol; Sigma 63689-25ML-F), 0.03% BGG (0.22 μM filtered, Sigma, G7516-25G), and 0.01% Triton X-100 (Sigma, T9284-10L). Nanoliter quantities of either an 8-point or 10-point, 3-fold serial dilution in DMSO was pre-dispensed into assay plates (Perkin Elmer, ProxiPlate-384 F Plus, #) for a final test concentration of either 25 μM to 11 nM or 25 μM to 1.3 nM, respectively. Enzyme USP28, construct USP28 (USP28-5(1-1077)-TEV-6*His; LifeSensors) concentration and incubation times were optimized for the maximal signal-to-background while maintaining initial velocity conditions at a fixed substrate concentration. The final concentration of the enzyme in the assay was 75 pM. Final substrate (Ub-Rh110; Ubiquitin-Rhodamine 110, R&D Systems #U-555) concentration was 25 nM with [Ub-Rh110]<<Km. 5 μL of 2× enzyme was added to assay plates (pre-stamped with compound) preincubated with USP28 for 30 minutes and then 5 μL of 2×Ub-Rh110 was added to assay plates. Plates were incubated stacked for 20 minutes at room temperature before 5 μL of stop solution was added (final concentration of 10 mM citric acid (Sigma, 251275-500G)). Fluorescence was read on the Envision (Excitation at 485 nm and Emission at 535 nm; Perkin Elmer) or on the PheraSTAR (Excitation at 485 nm and Emission at 535 nm; BMG Labtech).
For assay formats Example A-1(a), A-1(b), and A-2, data were reported as percent inhibition compared with control wells based on the following equation: % inh=1−((FLU−AveLow)/(AveHigh−AveLow)) where FLU=measured Fluorescence, AveLow=average Fluorescence of no enzyme control (n=16), and AveHigh=average Fluorescence of DMSO control (n=16). IC50 values were determined by curve fitting of the standard 4 parameter logistic fitting algorithm included in the Activity Base software package: IDBS XE Designer Model 205. Data is fitted using the Levenburg Marquardt algorithm.

Compound	USP28 A-1(b) IC50 range
Cc1ccc2c(N)c(C(=O)N[C@@H]3COc4cc(N5CC6CC(C5)N6)ccc4C3)sc2n1 [Example 2-3, N-((3S)-7-(3,6-diazabicyclo[3.1.1]heptan-3-yl)chroman-3-yl)-3-amino-6-methylthieno[2,3-b]pyridine-2-carboxamide]	+ (>2 μM)
Cc1ccc2c(N)c(C(=O)N[C@H]3COc4cc(N5CCNCC5)ccc4C3)sc2n1 (single isomer, unassigned) [Example 1-1]	+++ (0.05-0.2 μM)
Cc1nc2sc(C(=O)N[C@H]3COc4cc(N5CCNCC5)ccc4C3)c(N)c2cc1F (single isomer, unassigned) [Example 1-15]	+++ (0.05-0.2 μM)
Cc1ccc2c(N)c(C(=O)N[C@H]3COc4cc(N5CCNCC5)c(F)cc4C3)sc2n1 [Example 1-35, (R)-3-amino-N-(6-fluoro-7-(piperazin-1-yl)chroman-3-yl)-6-methylthieno[2,3-b]pyridine-2-carboxamide]	+++ (0.05-0.2 μM)
Cc1ccc2c(N)c(C(=O)N[C@@H]3COc4cc(N5CCN[C@@H](C)[C@@H]5C)ccc4C3)sc2n1 (single isomer, unassigned) [Example 1-14]	++ (0.2-2 μM)
Cc1ccc2c(N)c(C(=O)N[C@H]3COc4cc(N5CCN[C@@H](C)[C@@H]5C)ccc4C3)sc2n1 (single isomer, unassigned) [Example 1-13]	++ (0.2-2 μM)
Cc1cnc2c(N)c(C(=O)N[C@H]3COc4cc(N5CC6COCC(C5)N6)ccc4C3)sc2n1 [Example 2-12, N-((3R)-7-(3-oxa-7,9-diazabicyclo[3.3.1]nonan-7-yl)chroman-3-yl)-7-amino-3-methylthieno[2,3-b]pyrazine-6-carboxamide]	++ (0.2-2 μM)
Cc1ccc2c(N)c(C(=O)N[C@H]3COc4cc(N5CC6CCCC(C5)N6)ccc4C3)sc2n1 (single isomer, unassigned) [Example 1-5]	++++ (0.001-0.05 μM)
Cc1cc(C(F)(F)F)c2c(N)c(C(=O)N[C@H]3COc4cc(N5CC6CC(C5)N6)ccc4C3)sc2n1 [Example 2-21]	++ (0.2-2 μM)
Cc1ccc2c(N)c(C(=O)N[C@H]3COc4cc(N5CCN[C@H](C)[C@H]5C)ccc4C3)sc2n1 (single isomer, unassigned) [Example 1-11]	++++ (0.001-0.05 μM)
Cc1nc2sc(C(=O)N[C@@H]3COc4cc(N5CCNCC5)ccc4C3)c(N)c2s1 [Example 1-26, (S)-6-amino-2-methyl-N-(7-(piperazin-1-yl)chroman-3-yl)thieno[2,3-d]thiazole-5-carboxamide]	+ (>2 μM)
Cc1ccc2c(N)c(C(=O)N[C@H]3COc4cc(N5CC6CNCC(C5)C6(F)F)c(C#N)cc4C3)sc2n1 [Example 2-33, 3-amino-N-((3R)-6-cyano-7-(9,9-difluoro-3,7-diazabicyclo[3.3.1]nonan-3-yl)chroman-3-yl)-6-methylthieno[2,3-b]pyridine-2-carboxamide]	++++ (0.001-0.05 μM)
Cc1ccc2c(N)c(C(=O)N[C@@H]3COc4cc(N5CCN[C@H](C)[C@@H]5C)ccc4C3)sc2n1 (single isomer, unassigned) [Example 1-10]	++ (0.2-2 μM)
Cc1ccc2c(N)c(C(=O)N[C@H]3COc4cc(N5CC6CC(C5)N6)ccc4C3)sc2n1 [Example 2-2, N-((3R)-7-(3,6-diazabicyclo[3.1.1]heptan-3-yl)chroman-3-yl)-3-amino-6-methylthieno[2,3-b]pyridine-2-carboxamide]	+++ (0.05-0.2 μM)
Cc1ccc2c(N)c(C(=O)N[C@H]3COc4cc(N5CCN[C@@H](C)C5)ccc4C3)sc2n1 [Example 2-8, 3-amino-6-methyl-N-((R)-7-((S)-3-methylpiperazin-1-yl)chroman-3-yl)thieno[2,3-b]pyridine-2-carboxamide]	++ (0.2-2 μM)
Cc1nc2sc(C(=O)N[C@@H]3COc4cc(N5CC6CCC(C5)N6)cc(F)c4C3)c(N)c2s1 (single isomer, unassigned) [Example 1-40]	+ (>2 μM)
CCn1ccc2cc(C(=O)N[C@@H]3COc4cc(N5CC6CCC(C5)N6)ccc4C3)cnc21 (single isomer, unassigned) [Example 1-27]	+ (>2 μM)
Cc1nc2sc(C(=O)N[C@H]3COc4cc(N5CC6CC(C5)N6)ccc4C3)c(N)c2s1 [Example 2-26, N-((3R)-7-(3,6-diazabicyclo[3.1.1]heptan-3-yl)chroman-3-yl)-6-amino-2-methylthieno[2,3-d]thiazole-5-carboxamide]	++ (0.2-2 μM)
Cc1nc2sc(C(=O)N[C@H]3COc4cc(N5CC6CCC(C5)N6)cc(F)c4C3)c(N)c2s1 (single isomer, unassigned) [Example 1-39]	++ (0.2-2 μM)
Cc1cc(C)c2c(N)c(C(=O)N[C@H]3COc4cc(N5CC6CC(C5)N6)ccc4C3)sc2n1 [Example 2-18, N-((3R)-7-(3,6-diazabicyclo[3.1.1]heptan-3-yl)chroman-3-yl)-3-amino-4,6-dimethylthieno[2,3-b]pyridine-2-carboxamide]	+++ (0.05-0.2 μM)
Cc1ccc2c(N)c(C(=O)N[C@H]3COc4cc(N5CCC[C@@](N)(C(F)(F)F)C5)ccc4C3)sc2n1 (single isomer, unassigned) [Example 3-3]	++++ (0.001-0.05 μM)
Cc1ccc2c(N)c(C(=O)N[C@H]3COc4cc(N5CCC[C@](N)(C(F)(F)F)C5)ccc4C3)sc2n1 (single isomer, unassigned) [Example 3-4]	+++ (0.05-0.2 μM)
Cc1ccc2c(N)c(C(=O)N[C@@H]3COc4cc(N5CC6CC(C5)N6)cc(F)c4C3)sc2n1 (single isomer, unassigned) [Example 1-41]	+++ (0.05-0.2 μM)
Cc1ccc2c(N)c(C(=O)N[C@H]3COc4cc(N5CCNC[C@@H]5C)ccc4C3)sc2n1 [Example 2-4, 3-amino-6-methyl-N-((R)-7-((S)-2-methylpiperazin-1-yl)chroman-3-yl)thieno[2,3-b]pyridine-2-carboxamide]	++++ (0.001-0.05 μM)
